Data: patent US20180305332A1, “Bispiperidinyl Derivatives as Liver X Receptor Beta Agonists, Compositions, and Their Use” (Merck Sharp & Dohme Corp., priority 2015, published 2018)
pEC50: −log10 of the molar value.

Tests used:
[1] = molecular target: T1, GST tagged LXRbeta LBD (ligand binding domain) (Homo sapiens, UniProt P55055); experiment: LanthaScreen TR-FRET Liver X Receptor Coactivator Assay, LXR beta-LBD; format: biochemical; conditions: relative to reference T0901317; for pEC50: Inflection Point (potency), co-activator recruitment, read-out: LXR beta IP; for Emax: activity at max dose (efficacy), read-out: LXR beta act @ max dose (%)
T1 construct: purchased Invitrogen pv4658.pps
T1 sequence (P55055 222-460 limits assumed): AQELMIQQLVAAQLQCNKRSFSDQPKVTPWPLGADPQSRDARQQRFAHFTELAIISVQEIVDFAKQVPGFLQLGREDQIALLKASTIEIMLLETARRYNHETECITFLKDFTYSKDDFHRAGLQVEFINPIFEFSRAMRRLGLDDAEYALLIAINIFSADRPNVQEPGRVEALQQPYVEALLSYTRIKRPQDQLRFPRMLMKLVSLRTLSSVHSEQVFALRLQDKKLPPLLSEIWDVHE
Summary of the method: (§1)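 TR-FRET signal reflects compound-driven recruitment of a fluorescein-tagged coactivator peptide to the GST-tagged LBD, detected via terbium-labelled anti-GST antibody after incubation at room temperature. Potency given as inflection point; efficacy as Emax versus T0901317.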

[2] = molecular target: T2, GST tagged LXRalpha LBD (ligand binding domain) (Homo sapiens, UniProt Q13133); experiment: LanthaScreen TR-FRET Liver X Receptor Coactivator Assay, LXR alpha-LBD; format: biochemical; conditions: relative to reference T0901317; for pEC50 / LXR alpha IP (nM): Inflection Point (potency), co-activator recruitment; for pEC50: read-out: LXR alpha IP; for Emax: activity at max dose (efficacy), read-out: LXR alpha act @ max dose (%)
T2 construct: purchased Invitrogen pv4655
T2 sequence (Q13133 209-447 limits assumed): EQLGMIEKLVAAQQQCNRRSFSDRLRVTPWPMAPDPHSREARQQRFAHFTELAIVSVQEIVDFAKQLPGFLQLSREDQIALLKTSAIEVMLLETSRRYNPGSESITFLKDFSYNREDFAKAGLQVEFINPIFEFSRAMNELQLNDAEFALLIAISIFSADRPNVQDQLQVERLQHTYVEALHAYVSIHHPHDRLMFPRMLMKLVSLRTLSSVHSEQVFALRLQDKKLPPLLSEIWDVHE
Summary of the method: as §1

| pEC50 [1] | Emax [1] [%] | pEC50 [2] | Emax [2] [%] | LXR alpha IP (nM) [2] | Compound |
| --- | --- | --- | --- | --- | --- |
| 7.00 | 112 | 5.43 | 59 |  | CN(C)C(=O)c1ccc(N2CCC(C3CCN(C(=O)C(C)(C)c4ccc(O)cc4)CC3)CC2)cc1Cl [Example A-58, 2-chloro-4-{1′-[2-(4-hydroxyphenyl)-2-methylpropanoyl]-4,4′-bipiperidin-1-yl}-N,N-dimethylbenzamide] |
| 7.04 | 106 | 5.58 | 54 |  | CC(=O)Oc1ccc(C(C)(C)C(=O)N2CCC(C3CCN(c4ccc(C(=O)N(C)C)c(Cl)c4)CC3)CC2)cc1 [Example A-59, 4-(2-{1′-[3-chloro-4-(dimethylcarbamoyl)phenyl]-4,4′-bipiperidin-1-yl}-1,1-dimethyl-2-oxoethyl)phenyl acetate] |
| 7.48 | 109 | 6.14 | 32 |  | CN(C)C(=O)c1ccc(N2CCC(C3CCN(C(=O)C(C)(C)c4ccc(Cl)cc4Cl)CC3)CC2)cc1Cl [Example A-60, 2-chloro-4-{1′-[2-(2,4-dichlorophenyl)-2-methylpropanoyl]-4,4′-bipiperidin-1-yl}-N,N-dimethylbenzamide] |
| 7.25 | 115 | 6.05 | 53 |  | CCC(F)(C(=O)N1CCC(C2CCN(c3ccc(C(=O)N(C)C)c(Cl)c3)CC2)CC1)c1ccccc1 (centres unmarked) [Example A-61, 2-chloro-4-[1′-(2-fluoro-2-phenylbutanoyl)-4,4′-bipiperidin-1-yl]-N,N-dimethylbenzamide] |
| 7.66 | 131 | 6.11 | 74 |  | CN(C)C(=O)c1ccc(N2CCC(C3CCN(C(=O)C(F)(F)c4ccccc4Cl)CC3)CC2)cc1Cl [Example A-62, 2-chloro-4-{1′-[(2-chlorophenyl)(difluoro)acetyl]-4,4′-bipiperidin-1-yl}-N,N-dimethylbenzamide] |
| 6.66 | 114 | 5.54 | 52 |  | CN(C)C(=O)c1ccc(N2CCC(C3CCN(C(=O)C(F)(F)c4ccc(F)cc4)CC3)CC2)cc1Cl [Example A-63, 2-chloro-4-{1′-[difluoro(4-fluorophenyl)acetyl]-4,4′-bipiperidin-1-yl}-N,N-dimethylbenzamide] |
| 7.27 | 144 | 6.03 | 74 |  | CN(C)C(=O)c1ccc(N2CCC(C3CCN(C(=O)C(F)(F)c4ccccc4)CC3)CC2)cc1Cl [Example A-64, 2-chloro-4-{1′-[difluoro(phenyl)acetyl]-4,4′-bipiperidin-1-yl}-N,N-dimethylbenzamide] |
| 6.97 | 75 |  | 26 | NO IP | CN(C)C(=O)c1ccc(N2CCC(C3CCN(C(=O)C4(c5ccc(O)cc5)CCCC4)CC3)CC2)cc1Cl [Example A-67, 2-chloro-4-(1′-{[1-(4-hydroxyphenyl)cyclopentyl]carbonyl}-4,4′-bipiperidin-1-yl)-N,N-dimethylbenzamide] |
| 6.55 | 91 |  | 27 | NO IP | Cc1cccc(C(O)(C(=O)N2CCC(C3CCN(c4ccc(C(=O)N(C)C)c(Cl)c4)CC3)CC2)C(F)(F)F)c1 (centres unmarked) [Example A-68, 2-chloro-N,N-dimethyl-4-{1′-[3,3,3-trifluoro-2-hydroxy-2-(3-methylphenyl)propanoyl]-4,4′-bipiperidin-1-yl}benzamide] |
| 7.07 | 113 | 5.75 | 51 |  | CN(C)C(=O)c1ccc(N2CCC(C3CCN(C(=O)C(F)(F)c4cccc(F)c4)CC3)CC2)cc1Cl [Example A-69, 2-chloro-4-{1′-[difluoro(3-fluorophenyl)acetyl]-4,4′-bipiperidin-1-yl}-N,N-dimethylbenzamide] |
| 6.75 | 109 | 5.52 | 52 |  | CCCC(O)(C(=O)N1CCC(C2CCN(c3ccc(C(=O)N(C)C)c(Cl)c3)CC2)CC1)C(F)(F)F (centres unmarked) [Example A-70, 2-chloro-4-{1′-[2-hydroxy-2-(trifluoromethyl)pentanoyl]-4,4′-bipiperidin-1-yl}-N,N-dimethylbenzamide] |
| 7.19 | 127 | 5.78 | 62 |  | CN(C)C(=O)c1ccc(N2CCC(C3CCN(C(=O)C4(c5ccccc5F)CC4)CC3)CC2)cc1Cl [Example A-71, 2-chloro-4-(1′-{[1-(2-fluorophenyl)cyclopropyl]carbonyl}-4,4′-bipiperidin-1-yl)-N,N-dimethylbenzamide] |
| 6.95 | 96 | 5.90 | 30 |  | Cc1ccc(C2(C(=O)N3CCC(C4CCN(c5ccc(C(=O)N(C)C)c(Cl)c5)CC4)CC3)CCC2)cc1 [Example A-72, 2-chloro-N,N-dimethyl-4-(1′-{[1-(4-methylphenyl)cyclobutyl]carbonyl}-4,4′-bipiperidin-1-yl)benzamide] |
| 7.52 | 113 | 5.99 | 61 |  | CN(C)C(=O)c1ccc(N2CCC(C3CCN(C(=O)C4(c5ccccc5F)CCC4)CC3)CC2)cc1Cl [Example A-73, 2-chloro-4-(1′-{[1-(2-fluorophenyl)cyclobutyl]carbonyl}-4,4′-bipiperidin-1-yl)-N,N-dimethylbenzamide] |
| 6.38 | 57 |  | 0 | NO IP | CN(C)C(=O)c1ccc(N2CCC(C3CCN(C(=O)C4(c5ccc(Cl)c(Cl)c5)CCC4)CC3)CC2)cc1Cl [Example A-74, 2-chloro-4-(1′-{[1-(3,4-dichlorophenyl)cyclobutyl]carbonyl}-4,4′-bipiperidin-1-yl)-N,N-dimethylbenzamide] |
| 7.74 | 118 | 6.35 | 65 |  | Cc1ccccc1C1(C(=O)N2CCC(C3CCN(c4ccc(C(=O)N(C)C)c(Cl)c4)CC3)CC2)CCC1 [Example A-75, 2-chloro-N,N-dimethyl-4-(1′-{[1-(2-methylphenyl)cyclobutyl]carbonyl}-4,4′-bipiperidin-1-yl)benzamide] |
| 6.43 | 87 | 5.70 | 31 |  | CN(C)C(=O)c1ccc(N2CCC(C3CCN(C(=O)C4(c5cc(F)ccc5F)CCC4)CC3)CC2)cc1Cl [Example A-76, 2-chloro-4-(1′-{[1-(2,5-difluorophenyl)cyclobutyl]carbonyl}-4,4′-bipiperidin-1-yl)-N,N-dimethylbenzamide] |
| 7.28 | 86 | 6.21 | 31 |  | CN(C)C(=O)c1ccc(N2CCC(C3CCN(C(=O)C4(c5ccc(Cl)cc5Cl)CCC4)CC3)CC2)cc1Cl [Example A-77, 2-chloro-4-(1′-{[1-(2,4-dichlorophenyl)cyclobutyl]carbonyl}-4,4′-bipiperidin-1-yl)-N,N-dimethylbenzamide] |
| 6.68 | 81 |  | 15 | NO IP | COc1cccc(C2(C(=O)N3CCC(C4CCN(c5ccc(C(=O)N(C)C)c(Cl)c5)CC4)CC3)CCCC2)c1 [Example A-78, 2-chloro-4-(1′-{[1-(3-methoxyphenyl)cyclopentyl]carbonyl}-4,4′-bipiperidin-1-yl)-N,N-dimethylbenzamide] |
| 6.67 | 125 | 5.60 | 35 |  | CN(C)C(=O)c1ccc(N2CCC(C3CCN(C(=O)C4(c5cc(F)cc(F)c5)CCCC4)CC3)CC2)cc1Cl [Example A-79, 2-chloro-4-(1′-{[1-(3,5-difluorophenyl)cyclopentyl]carbonyl}-4,4′-bipiperidin-1-yl)-N,N-dimethylbenzamide] |
| 7.51 | 116 | 5.93 | 67 |  | CN(C)C(=O)c1ccc(N2CCC(C3CCN(C(=O)C(C)(C)c4ccccc4F)CC3)CC2)cc1Cl [Example A-80, 2-chloro-4-{1′-[2-(2-fluorophenyl)-2-methylpropanoyl]-4,4′-bipiperidin-1-yl}-N,N-dimethylbenzamide] |
| 6.55 | 104 | 5.44 | 25 |  | COc1cccc(C(O)(C(=O)N2CCC(C3CCN(c4ccc(C(=O)N(C)C)c(Cl)c4)CC3)CC2)C(F)(F)C(F)(F)F)c1 (centres unmarked) [Example A-81, 2-chloro-N,N-dimethyl-4-{1′-[3,3,4,4,4-pentafluoro-2-hydroxy-2-(3-methoxyphenyl)butanoyl]-4,4′-bipiperidin-1-yl}benzamide] |
| 8.15 | 107 | 6.83 | 58 |  | CN(C)C(=O)c1ccc(N2CCC(C3CCN(C(=O)C4(c5c(F)cccc5Cl)CCCC4)CC3)CC2)cc1Cl [Example A-82, 2-chloro-4-(1′-{[1-(2-chloro-6-fluorophenyl)cyclopentyl]carbonyl}-4,4′-bipiperidin-1-yl)-N,N-dimethylbenzamide] |
